Laboratory results: patent US20100069347A1, “HETEROCYCLYL-SUBSTITUTED ANTI-HYPERCHOLESTEROLEMIC COMPOUNDS” (priority 2006, published 2010)

Experiments:
cholesterol absorption = assay: Cholesterol Absorption Assay in Rat; assay type: in vivo; conditions: CD male rats, oral dosing, at the highest dose tested (0.0003 to 1 mg/kg); [3H]-cholesterol counts in liver and plasma
Description: Compounds of this invention were determined to inhibit cholesterol absorption employing the Cholesterol Absorption Assay in Rat, below. This assay involves comparing a test compound to ezetimibe with respect to their ability to inhibit cholesterol absorption in rat.
Cholesterol Absorption Assay in Rats: CD male rats (n=5/group), aged 5 weeks, were dosed orally with 0.5 ml 0.25% methyl cellulose solution with or without test compound or ezetimibe (0.0003 to 1 mg/kg). 0.5 to 16 hrs later all of the rats were dosed orally with 0.5 ml INTRALIPID® containing 5 μCi [^3H]-cholesterol per rat. Five hours later, the animals were euthanized, and liver and blood were collected. Cholesterol counts in liver and plasma were determined, and percent inhibition of cholesterol absorption was calculated.

Structure (SMILES)	melting point [°C]	inhibition of cholesterol absorption (cholesterol absorption) [%]
O=C1[C@H](CC[C@H](O)c2ccc(F)cc2)[C@@H](c2ccc(CCC(O)(CO)CO)cc2)N1c1ccc(CCc2nc[nH]n2)cc1 [Example 2, (3R,4S)-4-{4-[3,4-dihydroxy-3-(hydroxymethyl)butyl]phenyl}-3-[(3S)-3-(4-fluorophenyl)-3-hydroxypropyl]-1-{4-[2-(1H-1,2,4-triazol-5-yl)ethyl]phenyl}azetidin-2-one]	104	–
O=C1[C@H](CC[C@H](O)c2ccc(F)cc2)[C@@H](c2ccc(O)cc2)N1c1ccc(F)cc1 [ezetimibe, Ezetimibe]	–	> 90
